Experimental data taken from US20240124427A1, “HYDROXYHETEROCYCLOALKANE-CARBAMOYL DERIVATIVES” (Idorsia Pharmaceuticals Ltd, priority 2021, published 2024).

The molecules below were run against human Gal-3 (hGal-3) (Homo sapiens (Human), UniProt P17931) (assay: Competitive binding assay: biotinylated hGal-3 binding to microplate-adsorbed asialofetuin (ASF)). Conditions: Activity on hGal-3; mean values of several measurements; mixture of diastereomers measured where not separated.
In short: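 Biotinylated human Gal-3 binding to plate-adsorbed asialofetuin, competed by compound, 3 h at 4 °C. Bound protein detected with streptavidin-peroxidase (1 h, 4 °C) and ABTS substrate. IC50 reported as mean of several measurements.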

Chain of human Gal-3 (hGal-3) (P17931 whole entry): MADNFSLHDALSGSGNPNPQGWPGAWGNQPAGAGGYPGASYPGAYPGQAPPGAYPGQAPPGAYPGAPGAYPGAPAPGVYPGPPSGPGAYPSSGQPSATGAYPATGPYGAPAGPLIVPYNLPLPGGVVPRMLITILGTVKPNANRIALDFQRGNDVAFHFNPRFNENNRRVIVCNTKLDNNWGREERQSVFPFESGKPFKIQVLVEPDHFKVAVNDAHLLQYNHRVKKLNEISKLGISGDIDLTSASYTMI

SMILES	IC50
CO[C@@H]1[C@@H](n2cc(-c3cc(F)c(Cl)c(F)c3)nn2)[C@@H](O)[C@@H](CO)O[C@H]1C(=O)N(c1cc(Cl)cc(Cl)c1)[C@@H]1COC[C@H]1O [Example 51, (2R,3R,4S,5R,6R)-4-(4-(4-chloro-3,5-difluorophenyl)-1H-1,2,3-triazol-1-yl)-N-(3,5-dichlorophenyl)-5-hydroxy-6-(hydroxymethyl)-N-((3R,4S)-4-hydroxytetrahydrofuran-3-yl)-3-methoxytetrahydro-2H-pyran-2-carboxamide]	0.073 µM
CO[C@@H]1[C@@H](n2cc(-c3cc(F)c(Cl)c(F)c3)nn2)[C@@H](O)[C@@H](CO)O[C@H]1C(=O)N(c1cc(Br)cc(Br)c1)[C@@H]1COC[C@H]1O [Example 52, (2R,3R,4S,5R,6R)-4-(4-(4-chloro-3,5-difluorophenyl)-1H-1,2,3-triazol-1-yl)-N-(3,5-dibromophenyl)-5-hydroxy-6-(hydroxymethyl)-N-((3R,4S)-4-hydroxytetrahydrofuran-3-yl)-3-methoxytetrahydro-2H-pyran-2-carboxamide]	0.086 µM
CO[C@@H]1[C@@H](n2cc(-c3cc(F)c(Cl)c(F)c3)nn2)[C@@H](O)[C@@H](CO)O[C@H]1C(=O)N(c1cc(C)cc(Br)c1)[C@@H]1COC[C@H]1O [Example 54, (2R,3R,4S,5R,6R)-N-(3-bromo-5-methylphenyl)-4-(4-(4-chloro-3,5-difluorophenyl)-1H-1,2,3-triazol-1-yl)-5-hydroxy-6-(hydroxymethyl)-N-((3R,4S)-4-hydroxytetrahydrofuran-3-yl)-3-methoxytetrahydro-2H-pyran-2-carboxamide]	0.089 µM
CO[C@@H]1[C@@H](n2cc(-c3ccc(Cl)c(Cl)c3)nn2)[C@@H](O)[C@@H](CO)O[C@H]1C(=O)N(c1cc(Br)cc(Br)c1)[C@@H]1COC[C@H]1O [Example 56, (2R,3R,4S,5R,6R)-N-(3,5-dibromophenyl)-4-(4-(3,4-dichlorophenyl)-1H-1,2,3-triazol-1-yl)-5-hydroxy-6-(hydroxymethyl)-N-((3R,4S)-4-hydroxytetrahydrofuran-3-yl)-3-methoxytetrahydro-2H-pyran-2-carboxamide]	0.222 µM
CO[C@@H]1[C@@H](n2cc(-c3ccc(Cl)c(Cl)c3)nn2)[C@@H](O)[C@@H](CO)O[C@H]1C(=O)N(c1cc(C)cc(Br)c1)[C@@H]1COC[C@H]1O [Example 58, (2R,3R,4S,5R,6R)-N-(3-bromo-5-methylphenyl)-4-(4-(3,4-dichlorophenyl)-1H-1,2,3-triazol-1-yl)-5-hydroxy-6-(hydroxymethyl)-N-((3R,4S)-4-hydroxytetrahydrofuran-3-yl)-3-methoxytetrahydro-2H-pyran-2-carboxamide]	0.175 µM
CO[C@@H]1[C@@H](n2cc(-c3cc(F)c(F)c(F)c3)nn2)[C@@H](O)[C@@H](CO)O[C@H]1C(=O)N(c1cc(C)cc(Br)c1)[C@H]1CNC[C@@H]1O [Example 61, (2R,3R,4S,5R,6R)-N-(3-bromo-5-methylphenyl)-5-hydroxy-6-(hydroxymethyl)-N-((3S,4S)-4-hydroxypyrrolidin-3-yl)-3-methoxy-4-(4-(3,4,5-trifluorophenyl)-1H-1,2,3-triazol-1-yl)tetrahydro-2H-pyran-2-carboxamide]	0.026 µM
CO[C@@H]1[C@@H](n2cc(-c3ccc(C)c(F)c3F)nn2)[C@@H](O)[C@@H](CO)O[C@H]1C(=O)N(c1cc(C)cc(Br)c1)[C@H]1CNC[C@@H]1O [Example 64, (2R,3R,4S,5R,6R)-N-(3-bromo-5-methylphenyl)-4-(4-(2,3-difluoro-4-methylphenyl)-1H-1,2,3-triazol-1-yl)-5-hydroxy-6-(hydroxymethyl)-N-((3S,4S)-4-hydroxypyrrolidin-3-yl)-3-methoxytetrahydro-2H-pyran-2-carboxamide]	0.025 µM
CO[C@@H]1[C@@H](n2cc(-c3cc(F)c(F)c(F)c3)nn2)[C@@H](O)[C@@H](CO)O[C@H]1C(=O)N(c1cc(Cl)cc(Cl)c1)[C@@H]1CNC[C@H]1O [Example 66, (2R,3R,4S,5R,6R)-N-(3,5-dichlorophenyl)-5-hydroxy-6-(hydroxymethyl)-N-((3R,4R)-4-hydroxypyrrolidin-3-yl)-3-methoxy-4-(4-(3,4,5-trifluorophenyl)-1H-1,2,3-triazol-1-yl)tetrahydro-2H-pyran-2-carboxamide]	0.182 µM
CO[C@@H]1[C@@H](n2cc(-c3ccc(C)c(F)c3F)nn2)[C@@H](O)[C@@H](CO)O[C@H]1C(=O)N(c1cc(C)cc(Br)c1)[C@@H]1CNC[C@H]1O [Example 69, (2R,3R,4S,5R,6R)-N-(3-bromo-5-methylphenyl)-4-(4-(2,3-difluoro-4-methylphenyl)-1H-1,2,3-triazol-1-yl)-5-hydroxy-6-(hydroxymethyl)-N-((3R,4R)-4-hydroxypyrrolidin-3-yl)-3-methoxytetrahydro-2H-pyran-2-carboxamide]	0.038 µM
CO[C@@H]1[C@@H](n2cc(-c3cc(F)c(F)c(F)c3)nn2)[C@@H](O)[C@@H](CO)O[C@H]1C(=O)N(c1cc(C)cc(Br)c1)[C@H]1CN(C(C)=O)C[C@@H]1O [Example 72, (2R,3R,4S,5R,6R)-N-((3S,4S)-1-acetyl-4-hydroxypyrrolidin-3-yl)-N-(3-bromo-5-methylphenyl)-5-hydroxy-6-(hydroxymethyl)-3-methoxy-4-(4-(3,4,5-trifluorophenyl)-1H-1,2,3-triazol-1-yl)tetrahydro-2H-pyran-2-carboxamide]	0.026 µM

Now from value to molecule:

IC50	SMILES
0.164 µM	CO[C@@H]1[C@@H](n2cc(-c3ccc(Cl)c(Cl)c3)nn2)[C@@H](O)[C@@H](CO)O[C@H]1C(=O)N(c1cc(Cl)cc(Cl)c1)[C@@H]1COC[C@H]1O [Example 55, (2R,3R,4S,5R,6R)-N-(3,5-dichlorophenyl)-4-(4-(3,4-dichlorophenyl)-1H-1,2,3-triazol-1-yl)-5-hydroxy-6-(hydroxymethyl)-N-((3R,4S)-4-hydroxytetrahydrofuran-3-yl)-3-methoxytetrahydro-2H-pyran-2-carboxamide]
0.151 µM	CO[C@@H]1[C@@H](n2cc(-c3ccc(Cl)c(Cl)c3)nn2)[C@@H](O)[C@@H](CO)O[C@H]1C(=O)N(c1cc(Br)cc(C#N)c1)[C@@H]1COC[C@H]1O [Example 57, (2R,3R,4S,5R,6R)-N-(3-bromo-5-cyanophenyl)-4-(4-(3,4-dichlorophenyl)-1H-1,2,3-triazol-1-yl)-5-hydroxy-6-(hydroxymethyl)-N-((3R,4S)-4-hydroxytetrahydrofuran-3-yl)-3-methoxytetrahydro-2H-pyran-2-carboxamide]
0.023 µM	CO[C@@H]1[C@@H](n2cc(-c3cc(F)c(F)c(F)c3)nn2)[C@@H](O)[C@@H](CO)O[C@H]1C(=O)N(c1cc(Cl)cc(Cl)c1)[C@H]1CNC[C@@H]1O [Example 59, (2R,3R,4S,5R,6R)-N-(3,5-dichlorophenyl)-5-hydroxy-6-(hydroxymethyl)-N-((3S,4S)-4-hydroxypyrrolidin-3-yl)-3-methoxy-4-(4-(3,4,5-trifluorophenyl)-1H-1,2,3-triazol-1-yl)tetrahydro-2H-pyran-2-carboxamide]
0.051 µM	CO[C@@H]1[C@@H](n2cc(-c3cc(F)c(F)c(F)c3)nn2)[C@@H](O)[C@@H](CO)O[C@H]1C(=O)N(c1cc(Br)cc(C#N)c1)[C@H]1CNC[C@@H]1O [Example 60, (2R,3R,4S,5R,6R)-N-(3-bromo-5-cyanophenyl)-5-hydroxy-6-(hydroxymethyl)-N-((3S,4S)-4-hydroxypyrrolidin-3-yl)-3-methoxy-4-(4-(3,4,5-trifluorophenyl)-1H-1,2,3-triazol-1-yl)tetrahydro-2H-pyran-2-carboxamide]
0.024 µM	CO[C@@H]1[C@@H](n2cc(-c3ccc(C)c(F)c3F)nn2)[C@@H](O)[C@@H](CO)O[C@H]1C(=O)N(c1cc(Cl)cc(Cl)c1)[C@H]1CNC[C@@H]1O [Example 63, (2R,3R,4S,5R,6R)-N-(3,5-dichlorophenyl)-4-(4-(2,3-difluoro-4-methylphenyl)-1H-1,2,3-triazol-1-yl)-5-hydroxy-6-(hydroxymethyl)-N-((3S,4S)-4-hydroxypyrrolidin-3-yl)-3-methoxytetrahydro-2H-pyran-2-carboxamide]
0.054 µM	CO[C@@H]1[C@@H](n2cc(-c3ccc(Cl)c(Cl)c3)nn2)[C@@H](O)[C@@H](CO)O[C@H]1C(=O)N(c1cc(Cl)cc(Cl)c1)[C@H]1CNC[C@@H]1O [Example 65, (2R,3R,4S,5R,6R)-N-(3,5-dichlorophenyl)-4-(4-(3,4-dichlorophenyl)-1H-1,2,3-triazol-1-yl)-5-hydroxy-6-(hydroxymethyl)-N-((3S,4S)-4-hydroxypyrrolidin-3-yl)-3-methoxytetrahydro-2H-pyran-2-carboxamide]
0.129 µM	CO[C@@H]1[C@@H](n2cc(-c3cc(F)c(F)c(F)c3)nn2)[C@@H](O)[C@@H](CO)O[C@H]1C(=O)N(c1cc(Br)cc(C#N)c1)[C@@H]1CNC[C@H]1O [Example 67, (2R,3R,4S,5R,6R)-N-(3-bromo-5-cyanophenyl)-5-hydroxy-6-(hydroxymethyl)-N-((3R,4R)-4-hydroxypyrrolidin-3-yl)-3-methoxy-4-(4-(3,4,5-trifluorophenyl)-1H-1,2,3-triazol-1-yl)tetrahydro-2H-pyran-2-carboxamide]
0.222 µM	CO[C@@H]1[C@@H](n2cc(-c3cc(F)c(F)c(F)c3)nn2)[C@@H](O)[C@@H](CO)O[C@H]1C(=O)N(c1cc(C)cc(Br)c1)[C@@H]1CNC[C@H]1O [Example 68, (2R,3R,4S,5R,6R)-N-(3-bromo-5-methylphenyl)-5-hydroxy-6-(hydroxymethyl)-N-((3R,4R)-4-hydroxypyrrolidin-3-yl)-3-methoxy-4-(4-(3,4,5-trifluorophenyl)-1H-1,2,3-triazol-1-yl)tetrahydro-2H-pyran-2-carboxamide]
0.036 µM	CO[C@@H]1[C@@H](n2cc(-c3cc(F)c(F)c(F)c3)nn2)[C@@H](O)[C@@H](CO)O[C@H]1C(=O)N(c1cc(Cl)cc(Cl)c1)[C@H]1CN(C(C)=O)C[C@@H]1O [Example 71, (2R,3R,4S,5R,6R)-N-((3S,4S)-1-acetyl-4-hydroxypyrrolidin-3-yl)-N-(3,5-dichlorophenyl)-5-hydroxy-6-(hydroxymethyl)-3-methoxy-4-(4-(3,4,5-trifluorophenyl)-1H-1,2,3-triazol-1-yl)tetrahydro-2H-pyran-2-carboxamide]
